Results published in patent publication US12691069B2, “Synthetic glycolipids and glycoliposome compositions : suitable for cargo delivery to the central nervous system” (KORANEX CAPITAL, priority 2022, dated 2026).
Marks after values point to notes of the source that are not given here.

Experiments:
[1] = Dynamic light scattering (DLS) of MGs; format: physicochemical; conditions: At 3.2 mg/mL THF; for Diameter (nm): injected in nanopure water
Experimental: The self-assembly of the glycoliposomes into vesicles and liposomes involved the injection method of their solution in a water miscible solvent such as ethanol or tetrahydrofuran (THF) into water or buffer. […] The resulting assemblies were first analyzed by dynamic light scattering (DLS) for size, polydispersity (PDI), and stability in time. For liposome size determination, solutions of the glycolipids (3.5 mg) in THF (1.1 mL) were then diluted in distilled water (2.2 mL) to provide final concentrations of 1.06 mg/mL. Particle size distributions were measured in water using a Zetasizer® Nano S90 from Malvern Instruments (UK) equipped with 4 mW He—Ne laser 633 nm and avalanche photodiode positioned at 90° to the beam and temperature-controlled cuvette holder. Instrument parameters were determined automatically along with measurement times. Experiments were performed in triplicate at 25° C.
Different solutions of 12a (C8), 12c (C12), 12d (C14), 12e (C16), 22c (C12), 22d (C14), 22e (C16) in THF and EtOH were prepared from 0.5 mg/mL to 10 mg/mL. 100 μL of these preparations were injected in a constant 2 mL of nanopure water followed by 5 seconds of vortexing, and analyzed by DLS, to determine the diameter size of the MGs, as shown in Table 2.

HeLa cells = assay: Nile Red cellular uptake, HeLa; format: cell-based, human
Experimental: Murine dendritic cells JAWSII (ATCC® CRL-11904™) were grown in RPMI-1640 medium (HyClone, Logan UT) supplemented with 8% FBS (Gibco, Grand Island NY), 100 units/ml penicillin/streptomycin (HyClone, Logan UT) and 5 ng/mL of GM-CSF (Invitrogen, Frederick MD) at 37° C. and 5% CO2. Once confluent, cells were collected using 0.25% Trypsin-EDTA (Gibco, Grand Island NY). Murine macrophage cells J774A.1 (ATCC® TIB-67™) and human malignant cells HeLa (ATCC® CCL-2™; Cederlane, Burlington, ON, Canada) were grown […] (DMEM) high glucose (HyClone, Logan, UT) supplemented with 10% FBS and 100 units/ml penicillin/streptomycin at 37° C. and 5% CO2. Once confluent, cells were collected using a cell scraper. Viability was assessed prior to experiments by Trypan Blue (Gibco, Grand Island NY) exclusion where the viability was >90%. Cells were seeded at 3×10^5 cells in 300 μL in a 96 multi-well plate and left untreated or were treated with 10 μg/mL of empty liposomes MG12d or MGC12, 1 μg/mL of Nile Red (Sigma, St-Louis MO), or 1 μg/mL of Nile Red encapsulated in 10 μg/mL of MG12d or MGC12. […] Mean fluorescence intensity was analysed using the Cytomics FC-500 flow cytometer (Beckman Coulter, Fullerton CA) using the FL3 channel where […] were measured. Data was analyzed using the CXP Analysis Software. […]

[2] = In vivo Dynantin distribution after intranasal treatment; conditions: intranasal Dynantin 2 μg, 20 minutes

Compound | Polydispersity Index (PDI) [1] | Diameter (nm) [1] | further results
CCCCCCCCCCCCOc1ccc(C(=O)NCCCCCCO[C@H]2O[C@H](CO)[C@@H](O)[C@H](O)[C@@H]2O)cc1OCCCCCCCCCCCC [12c, 6-Bis(dodecyloxy)benzamido-N-hexyl α-D-mannopyranoside] | 0.202 | 267 ^a nm | 
CCCCCCCCOc1ccc(C(=O)NCCCCCCO[C@H]2O[C@H](CO)[C@@H](O)[C@H](O)[C@@H]2O)cc1OCCCCCCCC [12a, 6-Bis(octacyloxy)benzamido-N-hexyl α-D-mannopyranoside] | 0.178 | 300^a nm | 
CCN(CC)c1ccc2nc3c4ccccc4c(=O)cc-3oc2c1 [Nile Red] |  |  | Nile Red uptake / staining (HeLa cells): no staining
6-bis(tetradecyloxy)benzamido-N-hexyl α-D-mannopyranoside [12d] | 0.040 | 286 ^a nm | 
CC[C@H](C)[C@H](NC(=O)[C@H](CCCN=C(N)N)NC(=O)[C@H](CCCN=C(N)N)NC(=O)[C@H](CC(C)C)NC(=O)[C@H](Cc1ccccc1)NC(=O)CNC(=O)CNC(=O)[C@@H](C)Cc1c(C)cc(O)cc1C)C(=O)N[C@@H](CCCN=C(N)N)C(=O)N1CCC[C@H]1C(=O)N[C@@H](CCCCN)C(N)=O [Dynantin] |  |  | Brain (%), percentage of total dose recovered ([2]; brain): 8.15 ± 3.06%; Dynantin levels in the brain ([2]; brain): detectable levels; Lung (%), percentage of total dose recovered ([2]; lung): 4.93 ± 0.89%; Sera (%), percentage of total dose recovered ([2]; sera): 21.66 ± 3.99%
